Source: publication PMC11399263 (Nature Communications, 2024)

Tests used:
[1] = target: T1, MefHα/DmgHβ (Aminobacter niigataensis, UniProt A0AAX7FLU4); assay: guanylurea production by LC-MS; format: biochemical; details: 2 mM substrate, Tris-HCl pH 8, 30 °C
T1 construct: gene N7E70_023840; subunit-swapped heteromer of full-length subunits from two strains, co-expressed in E. coli; with Dimethylguanidine hydrolase subunit beta
T1 sequence (A0AAX7FLU4 20-376): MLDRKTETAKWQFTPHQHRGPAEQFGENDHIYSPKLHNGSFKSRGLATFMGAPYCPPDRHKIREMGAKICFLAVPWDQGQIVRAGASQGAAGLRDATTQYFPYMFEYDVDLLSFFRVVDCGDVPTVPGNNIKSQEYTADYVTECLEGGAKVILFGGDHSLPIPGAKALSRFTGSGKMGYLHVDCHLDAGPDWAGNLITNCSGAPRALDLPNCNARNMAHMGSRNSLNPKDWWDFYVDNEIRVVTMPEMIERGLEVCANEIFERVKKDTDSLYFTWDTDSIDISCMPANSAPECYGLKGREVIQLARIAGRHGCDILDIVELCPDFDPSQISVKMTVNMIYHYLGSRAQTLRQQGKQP
T1 sequence (A0ABR6L539 1-348 partner): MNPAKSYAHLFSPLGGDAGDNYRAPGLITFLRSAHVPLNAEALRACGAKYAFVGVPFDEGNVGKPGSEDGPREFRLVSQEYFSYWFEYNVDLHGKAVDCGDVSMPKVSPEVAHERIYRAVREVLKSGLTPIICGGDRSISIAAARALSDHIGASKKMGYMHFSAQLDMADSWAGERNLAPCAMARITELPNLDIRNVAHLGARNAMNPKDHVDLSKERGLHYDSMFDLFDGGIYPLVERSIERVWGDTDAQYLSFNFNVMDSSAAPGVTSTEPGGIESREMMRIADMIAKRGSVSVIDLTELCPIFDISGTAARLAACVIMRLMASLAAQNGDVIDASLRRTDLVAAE

[2] = target: 6x His-tagged metformin hydrolase α subunit of Aminobacter niigataensis MD1 (Aminobacter niigataensis MD1); assay: crystal structure; 6x His-AnMefH complex, 13.3 mg/ml; crystals from 20% PEG 3350, 100 mM Bis Tris Propane-HCl pH 6.5, 200 mM NaF, 18 °C; soaked with urea

Compound	guanylurea production by LC-MS [1]	stoichiometry N (MefHβ per MefHα) [2]
CN(C)C(=N)NC(=N)N [metformin]	MefHα/DmgHβ preferentially hydrolyzed metformin	
metformin hydrolase β subunit of Aminobacter niigataensis MD1, untagged (natural protein)		2
